Several values for one entry are separate records, joined by “and”; a condition that tells them apart may be missing. Equal entries are not always repeated. Toxic doses and inconclusive results are not listed. How the source made its calls: active means survival T/C of 150% or more; inactive means T/C below 125% in these data.
Tested on: P388 leukemia ip, CD2F1 mice, survival T/C
Test: NCI In Vivo Anticancer Drug Screen. Data for tumor model P388 Leukemia (intraperitoneal) in CD2F1 (CDF1) mice
Settings: endpoint: median survival time, higher = longer survival
How it was run: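 Mice carrying the transplanted tumor received test compound or vehicle. Survival was recorded in each group, and the value is the treated-group measurement divided by that of the vehicle-treated control group.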

[1] = dose: 12.5 mg/kg/injection, schedule: Q01DX009 (ip), vehicle: Klucel (hydroxypropylcellulose) (HPC)
[2] = dose: 50.0 mg/kg/injection, schedule: Q01DX009 (ip), vehicle: Klucel (hydroxypropylcellulose) (HPC)
[3] = dose: 100.0 mg/kg/injection, schedule: Q01DX009 (ip), vehicle: saline with Tween-80
[4] = dose: 100.0 mg/kg/injection, schedule: Q04DX002 (ip), vehicle: saline with Tween-80
[5] = dose: 200.0 mg/kg/injection, schedule: Q04DX002 (ip), vehicle: saline with Tween-80
[6] = dose: 60.0 mg/kg/injection, schedule: Q01DX005 (ip), vehicle: Klucel (hydroxypropylcellulose) (HPC)
[7] = dose: 120.0 mg/kg/injection, schedule: Q01DX005 (ip), vehicle: Klucel (hydroxypropylcellulose) (HPC)
[8] = dose: 240.0 mg/kg/injection, schedule: Q01DX005 (ip), vehicle: Klucel (hydroxypropylcellulose) (HPC)
[9] = dose: 50.0 mg/kg/injection, schedule: Q01DX009 (ip), vehicle: saline
[10] = dose: 50.0 mg/kg/injection, schedule: Q01DX005 (ip), vehicle: Klucel (hydroxypropylcellulose) (HPC)
[11] = dose: 100.0 mg/kg/injection, schedule: Q01DX005 (ip), vehicle: Klucel (hydroxypropylcellulose) (HPC)
[12] = dose: 200.0 mg/kg/injection, schedule: Q01DX005 (ip), vehicle: Klucel (hydroxypropylcellulose) (HPC)
[13] = dose: 50.0 mg/kg/injection, schedule: Q01DX009 (ip), vehicle: saline with Tween-80
[14] = dose: 200.0 mg/kg/injection, schedule: Q01DX009 (ip), vehicle: saline with Tween-80
[15] = dose: 100.0 mg/kg/injection, schedule: Q04DX003 (ip), vehicle: saline
[16] = dose: 200.0 mg/kg/injection, schedule: Q04DX003 (ip), vehicle: saline
[17] = dose: 400.0 mg/kg/injection, schedule: Q04DX003 (ip), vehicle: saline

Measured: T/C

CCOC(=O)CC1CC2c3cc(OC)c(OC)cc3CCN2CC1CC (centres undefined)
inactive: [1] 108 % of control | dose: 25.0 mg/kg/injection, schedule: Q01DX009 (ip), vehicle: Klucel (hydroxypropylcellulose) (HPC) 114 % of control | [2] 100 % of control and 114 % of control

Cc1coc2c1C(=O)C(=O)c1c-2ccc2c1CCCC2(C)CO (centres undefined) (tested in a mixture with another compound)
inactive: [3] 95 % of control | dose: 400.0 mg/kg/injection, schedule: Q01DX009 (ip), vehicle: saline with Tween-80 90 % of control

CC(=O)OC1CC(OC(C)=O)C2(C)CC3=C(O)C(=O)OC3CC(C)C12 (centres undefined)
inactive: [4] 97 % of control | [5] 101 % of control

CCc1ncc(C(C)(O)c2ccccc2)n1Cc1ccccc1 (centres undefined)
inactive: [6] 100 % of control | [7] 102 % of control | [8] 99 % of control

C/C=C(\C)C(=O)OC1C2C(C)=CC(O)C(O)C2(C)C2C3(O)OCC24C(CC(=O)OC14)C(C)C3O (centres undefined)
inactive: dose: 0.25 mg/kg/injection, schedule: Q01DX009 (ip), vehicle: Klucel (hydroxypropylcellulose) (HPC) 109 % of control | dose: 0.5 mg/kg/injection, schedule: Q01DX009 (ip), vehicle: Klucel (hydroxypropylcellulose) (HPC) 101 % of control | dose: 1.0 mg/kg/injection, schedule: Q01DX009 (ip), vehicle: Klucel (hydroxypropylcellulose) (HPC) 104 % of control | dose: 2.0 mg/kg/injection, schedule: Q01DX009 (ip), vehicle: Klucel (hydroxypropylcellulose) (HPC) 104 % of control

COC(=O)c1ccc(/C=C/C#N)cc1
inactive: [9] 100 % of control | dose: 100.0 mg/kg/injection, schedule: Q01DX009 (ip), vehicle: saline 102 % of control | dose: 200.0 mg/kg/injection, schedule: Q01DX009 (ip), vehicle: saline 97 % of control

c1ccc(/C2=N\OCCCOc3ccccc32)cc1
inactive: [10] 88 % of control | [11] 87 % of control | [12] 87 % of control

CCN(CC)C1CC(=O)C2(C)C3CCC4(C)C(C(C)C5CC(C)=C(CO)C(=O)O5)CCC4C3CC3OC32C1O (centres undefined)
inactive: dose: 4.5 mg/kg/injection, schedule: Q01DX005 (ip), vehicle: Klucel (hydroxypropylcellulose) (HPC) 98 % of control | dose: 9.0 mg/kg/injection, schedule: Q01DX005 (ip), vehicle: Klucel (hydroxypropylcellulose) (HPC) 93 % of control | dose: 18.0 mg/kg/injection, schedule: Q01DX005 (ip), vehicle: Klucel (hydroxypropylcellulose) (HPC) 100 % of control | dose: 36.0 mg/kg/injection, schedule: Q01DX005 (ip), vehicle: Klucel (hydroxypropylcellulose) (HPC) 98 % of control | dose: 72.0 mg/kg/injection, schedule: Q01DX005 (ip), vehicle: Klucel (hydroxypropylcellulose) (HPC) 100 % of control

C(=C\c1ccc(-c2nc3ccccc3o2)cc1)/c1ccc(-c2nc3ccccc3o2)cc1
inactive: [2] 100 % of control | dose: 100.0 mg/kg/injection, schedule: Q01DX009 (ip), vehicle: Klucel (hydroxypropylcellulose) (HPC) 101 % of control | dose: 200.0 mg/kg/injection, schedule: Q01DX009 (ip), vehicle: Klucel (hydroxypropylcellulose) (HPC) 102 % of control

COc1ccc2c3c1OC1C(OC)(OC)C=CC4(Cl)[C@@H](C2)N(C)CC[C@]314 (some centres undefined)
inactive: [6] 96 % of control | [7] 96 % of control | [8] 102 % of control

Cn1cnc([N+](=O)[O-])c1S(=O)(=O)NCN1CCOCC1
inactive: dose: 6.25 mg/kg/injection, schedule: Q01DX009 (ip), vehicle: Klucel (hydroxypropylcellulose) (HPC) 116 % of control | [1] 119 % of control

CC(=O)OCC1OC(NC(=S)NCC(=O)c2ccccc2)C(OC(C)=O)C(OC(C)=O)C1OC(C)=O (centres undefined)
inactive: dose: 50.0 mg/kg/injection, schedule: Q01DX005 (ip), vehicle: saline with Tween-80 99 % of control | dose: 100.0 mg/kg/injection, schedule: Q01DX005 (ip), vehicle: saline with Tween-80 99 % of control | dose: 200.0 mg/kg/injection, schedule: Q01DX005 (ip), vehicle: saline with Tween-80 98 % of control

CN(C)CCSc1nc2ccccc2o1
inactive: dose: 60.0 mg/kg/injection, schedule: Q01DX005 (ip), vehicle: saline 105 % of control | dose: 120.0 mg/kg/injection, schedule: Q01DX005 (ip), vehicle: saline 104 % of control

O=C1c2ccccc2CC1CN1CCCCC1 (centres undefined)
inactive: dose: 6.25 mg/kg/injection, schedule: Q04DX002 (ip), vehicle: saline 108 % of control | dose: 12.5 mg/kg/injection, schedule: Q04DX002 (ip), vehicle: saline 100 % of control | dose: 25.0 mg/kg/injection, schedule: Q04DX002 (ip), vehicle: saline 100 % of control

CCCC1CC[N-]CC1.CCCC1CC[N-]CC1.[Cl][Pt+2][Cl]
inactive: dose: 11.0 mg/kg/injection, schedule: Q01DX009 (ip), vehicle: saline with Tween-80 100 % of control | dose: 16.5 mg/kg/injection, schedule: Q01DX009 (ip), vehicle: saline with Tween-80 110 % of control | dose: 22.0 mg/kg/injection, schedule: Q01DX009 (ip), vehicle: saline with Tween-80 110 % of control | dose: 25.0 mg/kg/injection, schedule: Q01DX009 (ip), vehicle: saline with Tween-80 115 % of control | dose: 33.0 mg/kg/injection, schedule: Q01DX009 (ip), vehicle: saline with Tween-80 110 % of control | dose: 37.5 mg/kg/injection, schedule: Q01DX009 (ip), vehicle: saline with Tween-80 115 % of control | [13] 120 % of control

COC1=C(OC)C(=O)C(C(=O)CCCCC(=O)O)=C(C)C1=O
inactive: dose: 60.0 mg/kg/injection, schedule: Q01DX005 (ip), vehicle: saline with Tween-80 107 % of control | dose: 120.0 mg/kg/injection, schedule: Q01DX005 (ip), vehicle: saline with Tween-80 101 % of control | dose: 240.0 mg/kg/injection, schedule: Q01DX005 (ip), vehicle: saline with Tween-80 107 % of control

COC(=O)CC[C@@H]1C(C)=CC(=O)[C@@]2(F)[C@H]1CCC1=CC(=O)C=C[C@@]12C
inactive: [10] 108 % of control | [11] 100 % of control | [12] 109 % of control

O=S(=O)(CCS(=O)(=O)c1ccccc1)c1ccccc1
inactive: [13] 92 % of control | [3] 92 % of control | [14] 89 % of control

COc1ccc2c(c1)C(=O)/C(=N\O)C2
inactive: [10] 92 % of control | [11] 101 % of control | [12] 92 % of control

N=C(N)SCC(=O)n1ccc(=O)n(C(=O)CSC(=N)N)c1=O
inactive: dose: 100.0 mg/kg/injection, schedule: Q04DX002 (ip), vehicle: saline 100 % of control | dose: 200.0 mg/kg/injection, schedule: Q04DX002 (ip), vehicle: saline 100 % of control | dose: 400.0 mg/kg/injection, schedule: Q04DX002 (ip), vehicle: saline 96 % of control

BrC1CC2(OCCO2)C(Br)CC12OCCO2 (centres undefined)
inactive: dose: 25.0 mg/kg/injection, schedule: Q04DX003 (ip), vehicle: saline 99 % of control | dose: 50.0 mg/kg/injection, schedule: Q04DX003 (ip), vehicle: saline 100 % of control | [15] 118 % of control | [16] 103 % of control | [17] 103 % of control

O=C(O)c1c[nH]c2cc(OCc3ccc4ccccc4c3)ccc2c1=O
inactive: [15] 90 % of control | [16] 97 % of control | [17] 87 % of control

COc1ccc(C2CC(=O)N(c3ccncc3)C(=O)C2)cc1
inactive: dose: 50.0 mg/kg/injection, schedule: Q04DX002 (ip), vehicle: saline with Tween-80 115 % of control | [4] 95 % of control | [5] 90 % of control

Cn1c(N)c(N=Nc2ccccc2Cl)c(=O)n(C)c1=O
inactive: [13] 104 % of control | [3] 99 % of control | [14] 95 % of control

O=C1C=CC2=C3c4cc(O)c(O)cc4CC3(O)COC2=C1O (centres undefined)
inactive: dose: 6.25 mg/kg/injection, schedule: Q01DX009 (ip), vehicle: saline 102 % of control | dose: 12.5 mg/kg/injection, schedule: Q01DX009 (ip), vehicle: saline 108 % of control | dose: 25.0 mg/kg/injection, schedule: Q01DX009 (ip), vehicle: saline 118 % of control | [9] 108 % of control

CNCCOC(=O)/C=C1/CCC2C(C(O)CC3C(C)(C(=O)OC)CCCC23C)C1C (centres undefined)
inactive: dose: 1.5 mg/kg/injection, schedule: Q01DX009 (ip), vehicle: saline 110 % of control | dose: 3.0 mg/kg/injection, schedule: Q01DX009 (ip), vehicle: saline 102 % of control | dose: 6.0 mg/kg/injection, schedule: Q01DX009 (ip), vehicle: saline 106 % of control

Reference: PubChem BioAssay AID330 (DTP/NCI, 2004)
